Test results published in article PMC7924852, “The Emericellipsins A–E from an Alkalophilic Fungus Emericellopsis alkalina Show Potent Activity against Multidrug-Resistant Pathogenic Fungi” (Journal of Fungi, 2021).

Experiments:
[1] = system: Aspergillus niger ATCC 16404; assay: Disc-diffusion antifungal assay; assay type: cell-based; conditions: 40 µg/disc; A. niger ATCC 16404
A. terreus 497 [2] = assay: Broth two-fold microdilution MIC (CLSI); assay type: cell-based; conditions: A. terreus 497 clinical isolate; RPMI 1640 pH 7.0, 35 °C, 48 h
[3] = system: reference and clinical strains of Aspergillus; assay: Disc-diffusion antifungal assay, Aspergillus strains; assay type: cell-based; conditions: disc-diffusion, reference and clinical strains of Aspergillus
A. niger ATCC 16404 = assay: Broth two-fold microdilution MIC (CLSI); assay type: cell-based, Aspergillus niger; conditions: A. niger ATCC 16404; RPMI 1640 pH 7.0, 35 °C, 48 h, no visible growth
A. niger 1133 m [4] = assay: Disc-diffusion antifungal assay; assay type: cell-based, Aspergillus niger; conditions: 40 µg/disc, pathogenic clinical isolate
A. fumigatus VKM F-37 [5] = assay: Disc-diffusion antifungal assay; assay type: cell-based, Aspergillus fumigatus; conditions: 40 µg/disc
A. niger 1133 m [6] = assay: Broth two-fold microdilution MIC (CLSI); assay type: cell-based, Aspergillus niger; conditions: A. niger 1133 m clinical isolate; RPMI 1640 pH 7.0, 35 °C, 48 h
A. terreus 3 K [7] = assay: Disc-diffusion antifungal assay; assay type: cell-based; conditions: 40 µg/disc
A. fumigatus 390 m [8] = assay: Broth two-fold microdilution MIC (CLSI); assay type: cell-based, Aspergillus fumigatus; conditions: A. fumigatus 390 m clinical isolate; RPMI 1640 pH 7.0, 35 °C, 48 h
[9] = system: isolates of Aspergillus spp.; assay: Broth microdilution MIC, ranges over mould isolates; assay type: cell-based; conditions: range over opportunistic and clinical isolates of Aspergillus spp. (Table 4)
A. terreus 497 [10] = assay: Disc-diffusion antifungal assay; assay type: cell-based; conditions: 40 µg/disc; A. terreus 497, pathogenic clinical isolate
A. fumigatus VKM F-37 [11] = assay: Broth two-fold microdilution MIC (CLSI); assay type: cell-based, Aspergillus fumigatus; conditions: A. fumigatus VKM F-37; RPMI 1640 pH 7.0, 35 °C, 48 h
A. terreus 3 K [12] = assay: Broth two-fold microdilution MIC (CLSI); assay type: cell-based; conditions: A. terreus 3 K; RPMI 1640 pH 7.0, 35 °C, 48 h
A. fumigatus 390 m [13] = assay: Disc-diffusion antifungal assay; assay type: cell-based, Aspergillus fumigatus; conditions: 40 µg/disc, pathogenic clinical isolate

Substance | Zone of Inhibition [1] | Minimal Inhibitory Concentration (MIC) (A. terreus 497 [2]) | antifungal activity against Aspergillus strains (in words) [3] | Minimal Inhibitory Concentration (MIC) (A. niger ATCC 16404) | Zone of Inhibition (A. niger 1133 m [4]) | Zone of Inhibition (A. fumigatus VKM F-37 [5]) | Minimal Inhibitory Concentration (MIC) (A. niger 1133 m [6]) | Zone of Inhibition (A. terreus 3 K [7]) | Minimal Inhibitory Concentration (MIC) (A. fumigatus 390 m [8]) | MIC range [9] | Zone of Inhibition (A. terreus 497 [10]) | Minimal Inhibitory Concentration (MIC) (A. fumigatus VKM F-37 [11]) | Minimal Inhibitory Concentration (MIC) (A. terreus 3 K [12]) | Zone of Inhibition (A. fumigatus 390 m [13])
Methyldecanoyl-MePro-AHMOD-Ala-Aib-Ile-Aib-βAla-Alaol-Glyol [EmiB, emericellipsin B, homologue of emericellipsin A, nonribosomal peptaibol] | 10 ± 0.13 mm | 4 mg/L | low activity only against A. niger strains | 8 mg/L | 11 ± 0.170 mm | 0 mm | 8 mg/L | 0 mm | 8 mg/L | 4 to 8 mg/L | 0 mm | 8 mg/L | 4 mg/L | 0 mm
Methyldecanoyl-MePro-AHMOD-Ala-Aib-Ile-Iva-βAla-Aib-Glyol [EmiE, emericellipsin E, homologue of emericellipsin A, nonribosomal peptaibol] | 0 mm | 64 mg/L | totally inactive | ˃64 µg/mL | 0 mm | 0 mm | ˃64 µg/mL | 0 mm | ˃64 µg/mL | > 64 mg/L | 0 mm | ˃64 µg/mL | 32 mg/L | 0 mm
Methyldecanoyl-MePro-AHMOD-Ala-Iva-Ile-Iva-βAla-Alaol-Glyol [EmiD, emericellipsin D, homologue of emericellipsin A, nonribosomal peptaibol] | 0 mm | 16 mg/L | totally inactive | ˃64 µg/mL | 0 mm | 0 mm | ˃64 µg/mL | 0 mm | 32 mg/L | 16 to 32 mg/L | 0 mm | 32 mg/L | 16 mg/L | 0 mm
